The text below walks through data of patent US20060148760A1, “Method for the sysnthesis of compounds of formula I and their uses thereof” (TransTech Pharma, priority 2000, published 2006).

Molecules are shown by their SMILES. Where a name gives a salt, the structure may show the parent alone.

Assay [1] has as its system S-100b/RAGE interaction in Glioma cells. Put plainly: Functional assay: inhibition of NF-κB in Glioma cells (S-100b/RAGE interaction). The assay is classed as cell-based. The conditions noted are these: Glioma cell.
The next assay deals with T1, S-100b/RAGE interaction (Homo sapiens, UniProt Q15109).
T1 construct: generate soluble RAGE (sRAGE) comprised of the V and C domains
T1 sequence (Q15109 23-342 limits assumed): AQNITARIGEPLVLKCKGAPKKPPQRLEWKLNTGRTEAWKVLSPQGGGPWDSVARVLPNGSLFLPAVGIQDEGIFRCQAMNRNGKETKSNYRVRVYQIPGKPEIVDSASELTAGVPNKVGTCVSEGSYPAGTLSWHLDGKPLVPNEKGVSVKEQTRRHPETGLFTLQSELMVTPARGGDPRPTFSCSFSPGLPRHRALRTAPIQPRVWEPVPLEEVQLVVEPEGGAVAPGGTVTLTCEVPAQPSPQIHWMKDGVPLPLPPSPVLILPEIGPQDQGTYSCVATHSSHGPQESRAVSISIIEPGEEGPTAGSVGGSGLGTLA
As to the kind of experiment: ELISA assay, S-100b binding to sRAGE. The conditions noted are these: plate-bound S100b, concentration at which 50% signal is inhibited. How it is done: (§1) S100b, β-amyloid and CML (500 ng/100 μL/well) in 100 mM sodium bicarbonate/sodium carbonate buffer (pH 9.8) is loaded onto the wells of a NUNC Maxisorp flat bottom 96—well microtitre plate. The plate is incubated at 4° C. overnight. The wells are aspirated and treated with 50 mM imidazole buffer saline (pH 7.2) (with 1 mM CaCl2/MgCl2) containing 1% bovine serum albumin (BSA) (300 μL/well) for two h at 37° C.
(§2) Test compounds are dissolved in nanopure water (concentration: 10-100 μM). DMSO may be used as co-solvent. 25 μL of test compound solution in 2% DMSO is added, along with 75 μL sRAGE (4.0×10^−4 mg/mL FAC) to each well and samples are incubated for 1 h at 37° C. The wells are washed 3 times with 155 mM NaCl pH 7.2 buffer saline and are soaked 10 seconds between each wash. Non-radioactive binding is performed by adding:
(§3) 10 μL Biotinylated goat F(ab′)2 Anti-mouse IgG. (8.0×10^−4 mg/mL, FAC)
(§4) 10 μL Alk-phos-Sterptavidin (3×10^−3 mg/mL FAC)
(§5) 10 μL Polyclonal antibody for sRAGE (FAC 6.0×10^−3 mg/mL) to 5 mL 50 mM imidazole buffer saline (pH 7.2) containing 0.2% bovine serum albumin and 1 mM CaCl2. The mixture is incubated for 30 minutes at 37° C. 100 μL complex is added to each well and incubation is allowed to proceed at rt for 1 h. Wells are washed 3 times with wash buffer and soaked 10 s between each wash. 100 μL 1 mg/mL (pNPP) in 1 M diethanolamine (pH adjusted to 9.8 with HCl) is added. […] The reaction is quenched with 10 μL of stop solution (0.5 N NaOH in 50% ethanol) and the absorbance is measured spectrophotometrically with a microplate reader at 405 nm.

The target in assay [2] is T2, Carboxymethyl Lysine (CML)/RAGE interaction (Homo sapiens, UniProt Q15109).
T2 construct: generate soluble RAGE (sRAGE) comprised of the V and C domains
T2 sequence (Q15109 23-342 limits assumed): as above
As to the kind of experiment: ELISA assay, CML binding to sRAGE. The conditions noted are these: plate-bound CML. The method, then:
as §1, §2, §3, §4, §5

Assay [3] addresses T3, β-amyloid—RAGE interaction (Homo sapiens, UniProt Q15109).
T3 construct: generate soluble RAGE (sRAGE) comprised of the V and C domains
Put plainly: ELISA assay, β-amyloid binding to sRAGE. As to conditions: plate-bound β-amyloid. The method, then:
as §1, §2, §3, §4, §5

T3 sequence (Q15109 23-342 limits assumed): as above

In the case of `CCCCOc1cc(C(=O)OCCN(CC)CC)ccc1NC(=O)[C@H](N)Cc1ccc2ccccc2c1` [Example 1, (R)-3-(2-Naphthyl)-2-aminopropionic Acid 4-Diethylaminoethoxycarbonyl-2-butoxyaniline Amide Dihydrochloride], the concentration for half-maximal inhibition (IC50) in assay [1] stood at 3300 nM.

Regarding `CCCCOc1cc(C(=O)OCCN(CC)CC)ccc1NC(=O)[C@@H](Cc1ccc(OCc2ccccc2)cc1)NC(=O)NC(C)(C)C` [Example 18, (R)-3-(4-Benzyloxyphenyl)-2-tert-butylcarbamoylaminopropionic Acid 4-Diethylaminoethoxycarbonyl-2-butoxyaniline Amide], the IC50 at S-100b/RAGE interaction is 2300 nM; in assay [2], 840 nM; in assay [3] it was 2000 nM.
